According to EP0733364A1, “MEDICINAL COMPOSITION FOR CIRCULATORY ORGAN” (NIPPON SHINYAKU COMPANY, LIMITED, priority 1993, dated 1995):
“And” between values parts separate entries of the source, which are not always exact repeats. Identical values can stand only once.

Legend:
Type in all cases: in vivo, beagle dogs
[1] = test system: α2-PI; assay: Assay of α2-PI activity in plasma after oral administration; details: oral once a day for 3 days (0, 24, 48 hr), 116 mg/kg compound A as printed, Fig. 1
Method: The drugs were administered to groups of 4 beagle dogs (22-23 months old, body weights 9-11 kg) and the blood was serially sampled (-120, 0, 6, 24, 48, 72, 96, and 168 hr) for assay of α2-PI activity. One capsule of either compound A or compound B was administered orally once a day for 3 days (at 0, 24, and 48 hr) [116 mg/kg compound A or 300 mg/kg compound B (equimolar to compound A)]. Blood sampling was carried out by drawing 9 volumes of blood into a vacuum blood sampling tube containing 1 volume of 3.8% sodium citrate and, after gentle mixing, each blood sample was centrifuged (3,000 rpm x 10 min.) to separate the plasma. The plasma α2-PI activity was assayed with Test Team APL 2 Kit using the cleavage of the synthetic chromogenic substrate S-2251 as an indicator by plasmin.

[2] = test system: fibrin clot; assay: Fibrinolytic action: lysis of 125I-fibrin clot made from plasma obtained 48 hr after drug administration; details: for Fibrinolysis (%) : (24 hr after addition of Urokinase): N 4, mean S.E.
Method: The plasma obtained 48 hr after drug administration in Test Example 1 was used in this test.
To 0.35 ml of plasma was added 40 µl ^125I-fibrinogen (185 kBq/ml) and the mixture was dispensed to 3 test tubes, 0.1 ml per tube. To each of the test tubes was added 10 µl each of 100 µU/ml thrombin solution and 0.5 M calcium chloride solution and, after stirring, each tube was incubated at 37°C for 30 min to prepare a fibrin clot. Then, 2% albumin-saline containing 0, 50 or 100 U of urokinase was added to the tubes, 1 ml per tube. The tubes were incubated at 37°C and at 0, 3, 6, 9, 21 and 24 hr of incubation, 50µl of the supernatant was taken in a RIA tube and using a γ-counter (Packard Japan, A5424), the amount of the ^125I-fibrin degradated product was determined.

[3] = Observation for evaluation of diarrhea (stool property); parameters: key to stool property: -: normal stool; ±: slightly soft stool; +: soft stool; ++: mild diarrhea; +++: diarrhea; details: for stool property: one line per animal
Excerpt: In Test Example 1, the stool property was monitored every day and rated on the 5-point scale of -: normal, ±: slightly soft stool, +: soft stool, ++: mild diarrhea, +++: diarrheal.

In the case of `CCCC(=O)OCC1C(OC(=O)CCC)C(OC(=O)CCC)C(OC(=O)CCC)CN1C` (centres unmarked) [Compound A, 2,3,4,5-tetra-O-butyryl-N-methyl-moranoline], the α2-PI activity [1] is reported as “decreased α2-PI activity significantly”, the “Fibrinolysis (%) : (24 hr after addition of Urokinase)” value (shortened to “Fibrinolysis (%) ”) ([2]; Urokinase 0U, 300mg/kg) is reported as 143 ± 27% and the “Fibrinolysis (%) ” value ([2]; Urokinase 50U, 300mg/kg) is reported as 278 ± 31%. The “Fibrinolysis (%) ” value ([2]; Urokinase 100U, 300mg/kg) was 342 ± 30%, the fibrinolytic activity ([2]; urokinase addition level of 100 U) was “significantly accelerated the fibrinolytic activity” and the stool property ([3]; Day 1, 300mg/kg oral once a day for 3 days, 300 mg/kg) was “+ and - and ± and +++”. The stool property ([3]; Day 3, 300mg/kg oral once a day for 3 days, 300 mg/kg) was “+++ and ± (2×) and -”, the stool property ([3]; Day 4, 300mg/kg oral once a day for 3 days, 300 mg/kg) was “± (2×) and - (2×)” and the stool property ([3]; Day 7, 300mg/kg oral once a day for 3 days, 300 mg/kg) was “± and - (3×)”. For the same compound, the diarrhea-inducing effect ([3]; summary of Table 2) was “less remarkable in diarrhea-inducing effect than compound B”.
With `CN1C[C@H](O)[C@@H](O)[C@H](O)[C@H]1CO` [Compound B, N-methylmoranoline, reference compound] the “Fibrinolysis (%) ” value ([2]; Urokinase 0U, 116mg/kg) was 172 ± 56%, the “Fibrinolysis (%) ” value ([2]; Urokinase 50U, 116mg/kg) was 213 ± 27% and the “Fibrinolysis (%) ” value ([2]; Urokinase 100U, 116mg/kg) was 340 ± 49%. For the same compound, the stool property ([3]; Day 1, 116mg/kg oral once a day for 3 days, 116 mg/kg) was “+++ (2×) and ++ and +”, the stool property ([3]; Day 3, 116mg/kg oral once a day for 3 days, 116 mg/kg) was “+++ (3×) and + +” and the stool property ([3]; Day 4, 116mg/kg oral once a day for 3 days, 116 mg/kg) was “+ (2×) and ± (2×)”. The stool property ([3]; Day 7, 116mg/kg oral once a day for 3 days) was “-”.
